The assay has as its target cAMP and cAMP-inhibited cGMP 3',5'-cyclic phosphodiesterase 10A (Homo sapiens, UniProt Q9Y233). Kind of assay: Phosphodiersterase Evaluation Assay: IMAP TR-FRET Phosphodiersterase Evaluation Assay Kit (Molecular Device) was used for the measurement. Ten μL of a diluted test compound having each concentration and 5 μL of the enzyme PDE10 (BPA Bioscience) that had been diluted to 2 ng/mL with 1×IMAP Reaction Buffer (prepared with 5×included with the kit, 10 mM Tris-HCl, pH=7.2, 10 mM MgCl2, 0.05% NaN3, and 0.1% BSA) containing 0.1% BSA were added to a 384-well plate (Corning). The obtained mixture was then pre-incubated at room temperature for 5 minutes. Thereafter, 5 μL of cAMP substrate solution which was included with the kit and diluted to 400 nM with 1×IMAP Reaction Buffer containing 0.1% BSA, was added to the reaction solution, and the obtained mixture was reacted at room temperature for 60 minutes. Thereafter, 60 μL of an IMAP TR-FRET Binding solution included with the kit was further added to the reaction solution, and the obtained mixture was then left for 3 hours or more. Subsequently, using ARVO SX (PerkinElmer), the fluorescent intensity of Terbium (Emission=490 nm) and TR-FRET (Emission=520 nm) in the reaction solution were measured at an excitation wavelength of 340 nm, so as to calculate the amount of the generated 5′-AMP. […].

Broadly, the IC50 is the midpoint of a concentration-inhibition curve.

A value given as a limit tells only on which side of the number the result lay.

Chain of cAMP and cAMP-inhibited cGMP 3',5'-cyclic phosphodiesterase 10A (Q9Y233 whole entry): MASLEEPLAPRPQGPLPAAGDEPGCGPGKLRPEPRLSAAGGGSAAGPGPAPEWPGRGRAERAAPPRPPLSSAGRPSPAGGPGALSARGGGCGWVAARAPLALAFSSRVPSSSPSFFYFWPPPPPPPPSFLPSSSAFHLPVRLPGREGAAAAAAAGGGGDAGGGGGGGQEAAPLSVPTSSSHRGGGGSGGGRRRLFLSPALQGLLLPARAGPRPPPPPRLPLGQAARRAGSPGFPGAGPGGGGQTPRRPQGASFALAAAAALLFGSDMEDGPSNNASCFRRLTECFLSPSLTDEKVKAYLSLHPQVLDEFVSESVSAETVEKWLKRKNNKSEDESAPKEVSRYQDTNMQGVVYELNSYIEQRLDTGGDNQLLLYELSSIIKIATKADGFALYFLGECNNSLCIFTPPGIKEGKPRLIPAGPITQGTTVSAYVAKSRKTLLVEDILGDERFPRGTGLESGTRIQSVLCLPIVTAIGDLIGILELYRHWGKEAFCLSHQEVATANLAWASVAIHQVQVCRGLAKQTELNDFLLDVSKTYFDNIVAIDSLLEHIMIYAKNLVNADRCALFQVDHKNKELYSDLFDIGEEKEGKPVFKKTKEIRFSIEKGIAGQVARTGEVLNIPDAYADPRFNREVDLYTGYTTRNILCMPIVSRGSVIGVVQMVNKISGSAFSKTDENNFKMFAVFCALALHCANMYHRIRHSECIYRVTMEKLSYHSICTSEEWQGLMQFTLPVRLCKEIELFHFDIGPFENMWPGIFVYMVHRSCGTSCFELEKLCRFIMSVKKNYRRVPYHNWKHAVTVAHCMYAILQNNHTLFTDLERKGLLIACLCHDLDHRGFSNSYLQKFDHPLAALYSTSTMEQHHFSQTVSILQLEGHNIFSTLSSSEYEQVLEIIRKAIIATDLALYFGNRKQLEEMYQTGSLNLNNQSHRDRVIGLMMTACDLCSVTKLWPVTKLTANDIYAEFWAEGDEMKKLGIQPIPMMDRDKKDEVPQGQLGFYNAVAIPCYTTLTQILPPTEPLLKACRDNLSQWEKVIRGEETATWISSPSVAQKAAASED

`Cc1cccc(-c2cnn(C)c2C(=O)Nc2cc3nc(N4CCC[C@@H]4C(F)(F)F)nn3cc2F)n1`: the IC50 is less than 5 nM.
